According to patent US20120165310A1, “ETHER DERIVATIVES OF BICYCLIC HETEROARYLS” (NOVARTIS AG, priority 2009, published 2012):

These compounds were tested against T1, IGF-1R (Homo sapiens, UniProt P08069) (assay: Cellular IGF-1R assay: capture ELISA (MSD) of receptor phosphorylation in Hek293 cells). Conditions: Hek293-IGF1R cells, 1 h pre-incubation, 10 min IGF stimulation, pIGF1R capture ELISA.
T1 construct: expressed in transfected cells; host or cells: Hek293 (Hek293-IGF1R)
Type: cell-based
Procedure: (§1) In this assay the activity of the compounds of the invention against Insulin-like growth factor I (IGF-I) induced autophosphorylation of the IGF-IR was determined. The assay was conducted as follows: Compound-mediated inhibition of IGF1R and INSR phosphorylation in Hek293 cells transduced with the corresponding receptors was assessed in a capture ELISA format using the MSD (Meso Scale Discovery) platform. Briefly, 30,000 cells washed and diluted in starvation medium (DMEM high glucose supplemented with 0.1% BSA) were seeded in 90 μL per well into 96-well plates pre-coated with poly-D-lysine (0.1 mg/mL in PBS/O). After 24 h incubation at 37° C. and 5% CO2, dose-response effects were determined with 3-fold serial compound dilutions, starting at 10 μM. The final vehicle concentration is 0.1% DMSO in all wells. Following pre-incubation with compounds for 1 h, receptor phosphorylation was triggered by a 10 min exposure to 1.0 ng/μL IGF for Hek293-IGF1R cells, and 5.0 ng/μL insulin for Hek293-InsR cells. Cell lysis was achieved by addition of 80 μL MSD lysis buffer per aspirated well, incubation on ice for 20 min, and a freeze-thaw cycle. Target phosphorylation was then assessed by transferring volumes corresponding to approx. 6 μg Hek293-IGF1R or 0.6 μg Hek293-InsR lysates to MSD assay plates pre-coated with total-IGF1R or total-InsR Abs, respectively. […] Immune complexes were detected by a SULFO-Tag™-coupled anti-rabbit IgG antibody in the presence of 150 μL MSD read-buffer. Light emission at 620 nm triggered by application of electric current was recorded on a MSD Sectorlmager 6000. Acquired raw data (mean Ru-ECL units) were processed in an Excel analysis template. The plate blank (MSD lysis buffer) was subtracted from all data points. The effect of a particular test compound concentration on receptor phosphorylation was expressed relative to the window defined by ligand-stimulated vs unstimulated control cells (set as 100%). IC50 values [nM] were determined using 4-parametric curve-fitting (XLfit software, V4.3.2).
as §1, with “Compound-mediated” for “In this assay the activity of the compounds of the invention against Insulin-like growth factor I (IGF-I) induced autophosphorylation of the IGF-IR was determined. The assay was conducted as follows: Compound-mediated”, “cells trans-duced” for “cells transduced”, “receptors were” for “receptors was”, “concentration was” for “concentration is”, “for Hek293-IGF1 R” for “for Hek293-IGF1R”, “with total-IGF1 R” for “with total-IGF1R”

T1 sequence (P08069 31-1367): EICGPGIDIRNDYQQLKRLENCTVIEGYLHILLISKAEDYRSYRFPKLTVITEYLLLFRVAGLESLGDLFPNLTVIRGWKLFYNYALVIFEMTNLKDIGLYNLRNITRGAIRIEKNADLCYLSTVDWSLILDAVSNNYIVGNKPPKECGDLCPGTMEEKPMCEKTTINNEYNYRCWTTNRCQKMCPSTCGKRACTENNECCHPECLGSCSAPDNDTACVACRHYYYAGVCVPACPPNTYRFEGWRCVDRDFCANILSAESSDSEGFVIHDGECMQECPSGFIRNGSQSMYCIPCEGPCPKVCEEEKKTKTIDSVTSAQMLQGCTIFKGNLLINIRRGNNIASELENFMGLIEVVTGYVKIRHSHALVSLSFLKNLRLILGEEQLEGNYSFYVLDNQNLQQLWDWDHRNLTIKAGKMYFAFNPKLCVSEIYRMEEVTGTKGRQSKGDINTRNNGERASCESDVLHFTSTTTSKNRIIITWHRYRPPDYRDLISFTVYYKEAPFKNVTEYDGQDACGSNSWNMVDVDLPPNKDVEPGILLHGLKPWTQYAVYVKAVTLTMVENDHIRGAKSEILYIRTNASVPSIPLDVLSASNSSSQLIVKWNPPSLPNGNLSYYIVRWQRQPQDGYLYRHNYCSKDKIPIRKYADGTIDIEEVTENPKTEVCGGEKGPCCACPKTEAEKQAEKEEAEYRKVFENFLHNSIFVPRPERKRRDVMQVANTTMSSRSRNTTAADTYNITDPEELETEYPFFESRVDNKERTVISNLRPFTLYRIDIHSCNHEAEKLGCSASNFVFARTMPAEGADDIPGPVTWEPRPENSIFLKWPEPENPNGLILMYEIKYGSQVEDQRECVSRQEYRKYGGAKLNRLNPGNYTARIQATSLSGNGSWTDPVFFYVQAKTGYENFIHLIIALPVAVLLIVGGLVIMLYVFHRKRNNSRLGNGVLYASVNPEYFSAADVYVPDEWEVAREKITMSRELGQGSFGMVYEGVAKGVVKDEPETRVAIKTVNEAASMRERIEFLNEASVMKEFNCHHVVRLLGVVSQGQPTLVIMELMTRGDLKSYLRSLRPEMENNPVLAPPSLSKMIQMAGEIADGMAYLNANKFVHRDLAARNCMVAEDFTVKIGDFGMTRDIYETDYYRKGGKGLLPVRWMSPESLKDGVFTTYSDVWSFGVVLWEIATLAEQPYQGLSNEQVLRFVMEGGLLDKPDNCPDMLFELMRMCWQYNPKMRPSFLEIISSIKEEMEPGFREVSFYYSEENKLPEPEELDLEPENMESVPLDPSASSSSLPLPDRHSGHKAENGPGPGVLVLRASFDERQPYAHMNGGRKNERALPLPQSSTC

Compound	IC50 [nM]
CCC(=O)NCC1CC(n2cc(-c3cccc(OCC45CCC(CC4)O5)c3)c3c(N)ncnc32)C1 (stereo not drawn) [Example 162, N-(3-{4-amino-5-[3-(7-oxa-bicyclo[2.2.1]hept-1-ylmethoxy)-phenyl]-pyrrolo[2,3-d]pyrimidin-7-yl}-cyclobutylmethyl)-propionamide]	101
Nc1ncnc2c1c(-c1cccc(OCC3CCCCO3)c1)cn2[C@H]1C[C@@H](CN2CC(O)C2)C1 (relative stereo) [Example 28, 1-(cis-3-{4-amino-5-[3-(tetrahydro-pyran-2-ylmethoxy)-phenyl]-pyrrolo[2,3-d]pyrimidin-7-yl}-cyclobutylmethyl)-azetidin-3-ol]	294
Nc1ncnc2c1c(-c1cccc(OCC34CCC(CC3)O4)c1)cn2C1CCC(N2CC[C@H](F)C2)CC1 (stereo partly drawn) [Example 132, 5-(3-(7-oxabicyclo[2.2.1]heptan-1-ylmethoxy)phenyl)-7-((1R,4R)-4-((S)-3-fluoropyrrolidin-1-yl)cyclohexyl)-7H-pyrrolo[2,3-d]pyrimidin-4-amine]	114
Nc1ncnc2c1c(-c1cccc(OCC34CCC(CC3)O4)c1)cn2C1CCC2(CC1)CNC(=O)O2 (stereo not drawn) [Example 139, 8-(5-(3-(7-oxabicyclo[2.2.1]heptan-1-ylmethoxy)phenyl)-4-amino-7H-pyrrolo[2,3-d]pyrimidin-7-yl)-1-oxa-3-azaspiro[4.5]decan-2-one]	543
NC(=O)[C@@H]1[C@@H](O)CCN1C[C@H]1C[C@@H](n2cc(-c3cccc(OCC4CCCCO4)c3)c3c(N)ncnc32)C1 (stereo partly drawn) [Example 35, (2S,3S)-1-(cis-3-{4-amino-5-[3-(tetrahydro-pyran-2-ylmethoxy)-phenyl]-pyrrolo[2,3-d]pyrimidin-7-yl}-cyclobutylmethyl)-3-hydroxy-pyrrolidine-2-carboxylic acid amide]	41 to 103
Nc1nccn2c1c(-c1cccc(OCC3CCCCO3)c1)nc2[C@H]1C[C@@H](CN2CCS(=O)(=O)CC2)C1 (stereo partly drawn) [Example 30, 3-[cis-3-(1,1-Dioxothiomorpholin-4-ylmethyl)-cyclobutyl]-1-[3-(tetrahydro-pyran-2-ylmethoxy)-phenyl]-imidazo[1,5-a]pyrazin-8-ylamine]	254
Nc1ncnc2c1c(-c1cccc(OCC34CCC(CC3)O4)c1)cn2[C@H]1C[C@@H](N2CCN(CCO)CC2)C1 (relative stereo) [Example 172, 2-[4-(cis-3-{4-amino-5-[3-(7-oxa-bicyclo[2.2.1]hept-1-ylmethoxy)-phenyl]-pyrrolo[2,3-d]pyrimidin-7-yl}-cyclobutyl)-piperazin-1-yl]-ethanol]	21
[2H]C1([2H])C([2H])([2H])C2(COc3cccc(-c4cn([C@H]5C[C@@H](CN6CCS(=O)(=O)CC6)C5)c5ncnc(N)c45)c3)OC1([2H])C([2H])([2H])C2([2H])[2H] [Example 166, d9-7-[cis-3-(1,1-dioxo-1-thiomorpholin-4-ylmethyl)-cyclobutyl]-5-[3-(7-oxa-bicyclo[2.2.1]hept-1-ylmethoxy)-phenyl]-7H-pyrrolo[2,3-d]pyrimidin-4-ylamine]	16
[2H]C([2H])([2H])C(=O)NC[C@H]1C[C@@H](n2cc(-c3cccc(OCC45CCC(CC4)O5)c3)c3c(N)ncnc32)C1 [Example 165, d3-N-(3-{4-amino-5-[3-(7-oxa-bicyclo[2.2.1]hept-1-ylmethoxy)-phenyl]-pyrrolo[2,3-d]pyrimidin-7-yl}-cyclobutylmethyl)-acetamide]	52
7-[cis-3-(N-methylcarboxy-amino-methyl)-cyclobutyl]-5-3-(7-oxa-bicyclo[2.2.1]hept-1-ylmethoxy)-phenyl]-7H-pyrrolo[2,3-d]pyrimidin-4-ylamine [Example 177]	138
NC(=O)[C@@H]1CCCN1C[C@H]1C[C@@H](n2cc(-c3cccc(OCC4CCCCO4)c3)c3c(N)ncnc32)C1 (stereo partly drawn) [Example 42, (S)-1-(cis-3-{4-amino-5-[3-(tetrahydro-pyran-2-ylmethoxy)-phenyl]-pyrrolo[2,3-d]pyrimidin-7-yl}-cyclobutylmethyl)-pyrrolidine-2-carboxylic acid amide]	26 to 39
CC(C)C(=O)N[C@H]1CC[C@@H](n2cc(-c3cccc(OCC45CCC(CC4)O5)c3)c3c(N)ncnc32)CC1 [Example 147, N-((1S,4S)-4-(5-(3-(7-oxabicyclo[2.2.1]heptan-1-ylmethoxy)phenyl)-4-amino-7H-pyrrolo[2,3-d]pyrimidin-7-yl)cyclohexyl)isobutyramide]	231
Nc1ncnc2c1c(-c1cccc(OCC34CCC(CC3)O4)c1)cn2[C@H]1C[C@@H](CN2CCSCC2=O)C1 [Example 106, 4-(((1S,3S)-3-(5-(3-(7-oxabicyclo[2.2.1]heptan-1-ylmethoxy)phenyl)-4-amino-7H-pyrrolo[2,3-d]pyrimidin-7-yl}-cyclobutyl)methyl)thiomorpholin-3-one]	61

More lines, now with the values ahead:

IC50 [nM]	Compound
37	CC1(C)CCC(COc2cccc(-c3cn([C@H]4C[C@@H](CN5CC[C@@H](F)C5)C4)c4ncnc(N)c34)c2)O1 (relative stereo) [Example 52, 5-[cis-3-(5,5-dimethyl-tetrahydro-furan-2-ylmethoxy)-phenyl]-7-[3-((R)-3-fluoro-pyrrolidin-1-ylmethyl)cyclobutyl]-7H-pyrrolo[2,3-d]pyrimidin-4-ylamine]
149 to 152	NC(=O)[C@H]1CCCN1C[C@H]1C[C@@H](n2cc(-c3cccc(OCC4CCCCO4)c3)c3c(N)ncnc32)C1 (stereo partly drawn) [Example 29, (R)-1-(cis-3-{4-amino-5-[3-(tetrahydro-pyran-2-ylmethoxy)-phenyl]-pyrrolo[2,3-d]pyrimidin-7-yl}-cyclobutylmethyl)-pyrrolidine-2-carboxylic acid amide]
166	Nc1ncnc2c1c(-c1cccc(OC[C@@H]3CCCO3)c1)cn2[C@H]1C[C@@H](CN2CCS(=O)(=O)CC2)C1 [Example 156, 7-[cis-3-(1,1-Dioxo-1-thiomorpholin-4-ylmethyl)-cyclobutyl]-5-{3-[(S)-1-(tetrahydro-furan-2-yl)methoxy]-phenyl}-7H-pyrrolo[2,3-d]pyrimidin-4-ylamine]
47 to 112	CC(=O)NC[C@H]1C[C@@H](n2cc(-c3cccc(OCC45CCC(CC4)O5)c3)c3c(N)ncnc32)C1 [Example 178]
< 4	CC1(C)CCC(COc2cccc(-c3cn([C@H]4C[C@@H](CN5CCS(=O)(=O)CC5)C4)c4ncnc(N)c34)c2)O1 (single isomer, unassigned) [Example 66]
115 to 194	CN1CCN(C[C@H]2C[C@@H](n3cc(-c4cccc(OCC56CCC(CC5)O6)c4)c4c(N)ncnc43)C2)CC1=O (relative stereo) [Example 210, 4-(cis-3-{4-Amino-5-[3-(7-oxa-bicyclo[2.2.1]hept-1-ylmethoxy)-phenyl]-pyrrolo[2,3-d]pyrimidin-7-yl}-cyclobutylmethyl)-1-methyl-piperazin-2-one]
219	NC(=O)C1C2CCC(C2)N1CC1CC(n2cc(-c3cccc(OCC4CCCCO4)c3)c3c(N)ncnc32)C1 [Example 95, (1R,3R,45)-2-(((1s, 3S)-3-(4-amino-5-(3-((tetrahydro-2H-pyran-2-yl)methoxy)phenyl)-7H-pyrrolo[2,3-d]pyrimidin-7-yl)cyclobutyl)methyl)-2-azabicyclo[2.2.1]heptane-3-carboxamide]
374	Nc1ncnc2c1c(-c1cccc(OCC34CCC(CC3)O4)c1)cn2C1CCC(N2CCC(O)C2)CC1 [Example 127, (S)-1-((1S,4S)-4-(5-(3-(7-oxabicyclo[2.2.1]heptan-1-ylmethoxy)phenyl)-4-amino-7H-pyrrolo[2,3-d]pyrimidin-7-yl)cyclohexyl)pyrrolidin-3-ol]
